Measurements taken from patent US10004716B2, “Therapeutic/ preventive agent containing coumarin derivative as active ingredient” (NIPPON ZOKI PHARMACEUTICAL CO., LTD., priority 2014, dated 2018).

Assays:
[1] = tested on: connective tissue growth factor (CTGF) gene expression; test: Evaluation I: TGF-β-induced gene expression of fibrosis-related factors in NHLF cells: CTGF; format: cell-based, human; settings: 25 μmol/L test substance 2 hours, then TGF-β 5 ng/mL 24 hours, n = 3
Description: (§1) NHLF cells were sown so as to make their amount 4×10^4 cells/well to each well of a 12-well plate and incubated to an extent of 80% confluent in a medium where fibroblast growth medium 2 supplement mix (FGM-2 SingleQuots, Lonza) was added to a fibroblast basal medium (FBM, Lonza). After that, incubation was conducted for 2 hours in a Dulbecco modified Eagle medium (DMEM) containing 25 μmol/L of a test substance and, after addition of […] growth factor (TGF)-β thereto so as to make its final concentration 5 ng/mL, incubation was carried out for 24 hours more.
(§2) QIAzol Lysis Reagent (QIAGEN) (1 mL) was added to the above to suspend, 200 μL of chloroform was added thereto followed by mixing and centrifugation (at 4° C. and 1500 rpm) was then conducted whereby the supernatant liquid was recovered. Total RNA was extracted and purified by treating the supernatant liquid with QIACube (QIAGEN) and RNeasy Micro Kit (QIAGEN). cDNA was prepared from the total RNA using Omniscript RT kit (QIAGEN) and Oligo(dT)12-18 Primer (Invitrogen).
(§3) Gene expression level of the fibrosis-related factors [connective tissue growth factor (CTGF), α-smooth muscle actin (SMA), fibronectin, endothelin and type I collagen (Col 1)] was measured by a conventional real time PCR method using a fluorescent dye SYBR GREEN I (Roche Diagnostics) by Light Cycler LC 480 (the same) using cDNA synthesized from the total RNA extracted in the above (2). A calibration curve was prepared by diluting the PCR product quantified by PicoGreen dsDNA Quantitation kit (Molecular probes) (a DNA quantitation kit) to an extent of 10^2˜10^7 copies/μL. From each of the resulting quantified values, copy numbers per 10000 copies of GAPDH gene being an internal standard were calculated.

IL-1β gene expression [2] = test: Suppression of IL-1α-induced gene expression of inflammation-related factors in bovine cartilage pieces (real time PCR): IL-1β; format: cell-based; settings: 20 μmol/L test substance 2 hours, then IL-1α 3 ng/mL 8 hours, n = 3
Description: Each 6 to 8 cartilage pieces (diameter: 4 mm) of bovine metacarpophalangeal joint were placed into each well of a 24-well plate and incubated for one night in 1 mL of a basal medium in a CO2 incubator which was set at 37° C. and 5% by volume of CO2. After that, they were incubated for 2 hours in a basal medium containing 20 μmol/L of a test substance and, after addition of human recombinant IL-1α (3 ng/mL) thereto, they were incubated for 8 hours more. After completion of the incubation, the culture medium was discarded, an RNA stabilizer was added to the cartilage pieces, the mixture was incubated at 4° C. for one night and the cartilage pieces were finely cut using scissors, placed into micro-tubes and stored with freezing until the extraction of RNA therefrom.
The cartilage pieces placed in the micro-tubes were pulverized using Tissue Lyser (QIAGEN) (at 25 Hz for 5 minutes; for two times), 1 mL of QIAzol Lysis Reagent (QIAGEN) was added thereto to suspend, 200 μL of chloroform was added thereto followed by mixing and the mixture was centrifuged (1500 rpm at 4° C.) to recover the supernatant liquid. Total RNA was extracted and purified using QIACube (QIAGEN) and RNeasy Micro Kit (QIAGEN). cDNA was prepared from the total RNA using Omniscript RT Kit (QIAGEN) and Oligo(dT)12-18 Primer (Invitrogen).
The cDNA synthesized from the total RNA extracted in the above (2) was used to measure the gene expression level of the inflammation-related factors [IL-1β, IL-6, COX-2 and iNOS (inducible nitric oxide synthase)] by a conventional real time PCR method using a fluorescent dye SYBR GREEN I (Roche Diagnostics) by a Light Cycler LC 480 (the same). A calibration curve was prepared by dilution of a PCR product quantified by a DNA quantitation kit (PicoGreen dsDNA Quantitiation Kit (Molecular Probes)) to an extent of 10^2˜10^7 copies/μL. From each of the resulting measured data, copy numbers per 10000 copies of glyceroaldehyde-3-phosphate dehydrogenase (GAPDH) which was an internal standard were calculated.

IL-1β gene expression [3] = test: Suppression of LPS-induced gene expression of inflammation-related factors in THP-1 cells (real time PCR): IL-1β; format: cell-based, human; settings: PMA-differentiated THP-1 cells; test substance 12.5 μmol/mL 2 hours, then LPS 10 mg/mL 3 hours; n = 3
Description: (§4) THP-1 cells were subjected to induction of differentiation for 72 hours with PMA (phorbol 12-myristate 13-acetate; 100 nM/L) and then the THP-1 cells (5×10^5 cells/mL) were incubated for 24 hours in a RPMI 1640+10% FCS culture solution in a 24-well plate. After that, a test substance was added so as to make the final concentration 12.5 μmol/mL followed by conducting the preincubation for 2 hours, a lipopolysaccharide (LPS) was then added thereto so as to make the final concentration 10 mg/mL and, after 3 hours, the cells were recovered.
as §2, with “was” for “was then”
as §3, with “inflammation-related” for “fibrosis-related”, “[IL-1β, IL-6” for “[connective tissue growth factor (CTGF), α-smooth muscle actin (SMA), fibronectin, endothelin”, “monocyte chemotactic protein (MCP)-1]” for “type I collagen (Col 1)]”

[4] = tested on: type I collagen (Col 1) gene expression; test: Evaluation I: TGF-β-induced gene expression of fibrosis-related factors in NHLF cells: Col 1; format: cell-based, human; settings: 25 μmol/L test substance 2 hours, then TGF-β 5 ng/mL 24 hours, n = 3
Description: as §1, §2, §3

[5] = tested on: monocyte chemotactic protein (MCP)-1 gene expression; test: Suppression of LPS-induced gene expression of inflammation-related factors in THP-1 cells (real time PCR): MCP-1; format: cell-based, human; settings: PMA-differentiated THP-1 cells; test substance 12.5 μmol/mL 2 hours, then LPS 10 mg/mL 3 hours; n = 3
Description: as §4
as §2, with “was” for “was then”
as §3, with “inflammation-related” for “fibrosis-related”, “[IL-1β, IL-6” for “[connective tissue growth factor (CTGF), α-smooth muscle actin (SMA), fibronectin, endothelin”, “monocyte chemotactic protein (MCP)-1]” for “type I collagen (Col 1)]”

[6] = tested on: fibronectin gene expression; test: Evaluation I: TGF-β-induced gene expression of fibrosis-related factors in NHLF cells: fibronectin; format: cell-based, human; settings: 25 μmol/L test substance 2 hours, then TGF-β 5 ng/mL 24 hours, n = 3
Description: as §1, §2, §3

IL-6 gene expression = test: Suppression of LPS-induced gene expression of inflammation-related factors in THP-1 cells (real time PCR): IL-6; format: cell-based, human; settings: PMA-differentiated THP-1 cells; test substance 12.5 μmol/mL 2 hours, then LPS 10 mg/mL 3 hours; n = 3
Description: as §4
as §2, with “was” for “was then”
as §3, with “inflammation-related” for “fibrosis-related”, “[IL-1β, IL-6” for “[connective tissue growth factor (CTGF), α-smooth muscle actin (SMA), fibronectin, endothelin”, “monocyte chemotactic protein (MCP)-1]” for “type I collagen (Col 1)]”

[7] = tested on: endothelin gene expression; test: Evaluation I: TGF-β-induced gene expression of fibrosis-related factors in NHLF cells: endothelin; format: cell-based, human; settings: 25 μmol/L test substance 2 hours, then TGF-β 5 ng/mL 24 hours, n = 3
Description: as §1, §2, §3

O=c1oc2c(OS(=O)(=O)c3ccc(C(F)(F)F)cc3)cccc2cc1NS(=O)(=O)c1cccc(C(F)(F)F)c1 [Compound 57, 2-Oxo-3-[[3-(trifluoromethyl)phenyl]sulfonylamino]-chromen-8-yl 4-(trifluoromethyl)benzenesulfonate]
Copy Numbers per 10000 Copies of GAPDH CTGF [1]: 8963.4 copies per 10000 copies of GAP | Copy Numbers per 10000 Copies of GAPDH IL-1β (IL-1β gene expression [2]): 144.8 copies per 10000 copies of GAP | Copy Numbers per 10000 Copies of GAPDH IL-1β (IL-1β gene expression [3]): 30318.3 copies per 10000 copies of GAP | Copy Numbers per 10000 Copies of GAPDH Col 1 [4]: 9715.8 copies per 10000 copies of GAP | Copy Numbers per 10000 Copies of GAPDH MCP-1 [5]: 1001.3 copies per 10000 copies of GAP | Copy Numbers per 10000 Copies of GAPDH Fibronectin [6]: 21220.7 copies per 10000 copies of GAP | Copy Numbers per 10000 Copies of GAPDH IL-6 (IL-6 gene expression): 49.0 copies per 10000 copies of GAP | Copy Numbers per 10000 Copies of GAPDH Endothelin [7]: 8.2 copies per 10000 copies of GAP

O=c1oc2c(OS(=O)(=O)c3cccc(Br)c3)cccc2cc1NS(=O)(=O)c1cccc(C(F)(F)F)c1 [Compound 60, 2-Oxo-3-[[3-(trifluoromethyl)phenyl]sulfonylamino]-chromen-8-yl 3-bromobenzenesulfonate]
Copy Numbers per 10000 Copies of GAPDH CTGF [1]: 13992.0 copies per 10000 copies of GAP | Copy Numbers per 10000 Copies of GAPDH IL-1β (IL-1β gene expression [2]): 170.6 copies per 10000 copies of GAP | Copy Numbers per 10000 Copies of GAPDH IL-1β (IL-1β gene expression [3]): 29872.3 copies per 10000 copies of GAP | Copy Numbers per 10000 Copies of GAPDH Col 1 [4]: 11388.1 copies per 10000 copies of GAP | Copy Numbers per 10000 Copies of GAPDH MCP-1 [5]: 1787.5 copies per 10000 copies of GAP | Copy Numbers per 10000 Copies of GAPDH Fibronectin [6]: 30000.8 copies per 10000 copies of GAP | Copy Numbers per 10000 Copies of GAPDH IL-6 (IL-6 gene expression): 275.2 copies per 10000 copies of GAP | Copy Numbers per 10000 Copies of GAPDH Endothelin [7]: 16.9 copies per 10000 copies of GAP

O=c1oc2c(OS(=O)(=O)c3ccc(C(F)(F)F)cc3)cccc2cc1NS(=O)(=O)c1cccc(Br)c1 [Compound 58, 3-[(3-Bromophenyl)sulfonylamino]-2-oxochromen-8-yl 4-(trifluoromethyl)benzenesulfonate]
Copy Numbers per 10000 Copies of GAPDH CTGF [1]: 5020.5 copies per 10000 copies of GAP | Copy Numbers per 10000 Copies of GAPDH IL-1β (IL-1β gene expression [2]): 157.8 copies per 10000 copies of GAP | Copy Numbers per 10000 Copies of GAPDH IL-1β (IL-1β gene expression [3]): 31904.4 copies per 10000 copies of GAP | Copy Numbers per 10000 Copies of GAPDH Col 1 [4]: 5901.0 copies per 10000 copies of GAP | Copy Numbers per 10000 Copies of GAPDH MCP-1 [5]: 1040.9 copies per 10000 copies of GAP | Copy Numbers per 10000 Copies of GAPDH Fibronectin [6]: 18665.2 copies per 10000 copies of GAP | Copy Numbers per 10000 Copies of GAPDH IL-6 (IL-6 gene expression): 93.2 copies per 10000 copies of GAP | Copy Numbers per 10000 Copies of GAPDH Endothelin [7]: 7.6 copies per 10000 copies of GAP

O=c1oc2c(OS(=O)(=O)c3cccc(C(F)(F)F)c3)cccc2cc1NS(=O)(=O)c1ccc(C(F)(F)F)cc1 [Compound 68, 2-Oxo-3-[[4-(trifluoromethyl)phenyl]sulfonylamino]-chromen-8-yl 3-(trifluoromethyl)benzenesulfonate]
Copy Numbers per 10000 Copies of GAPDH CTGF [1]: 10441.5 copies per 10000 copies of GAP | Copy Numbers per 10000 Copies of GAPDH IL-1β (IL-1β gene expression [2]): 175.1 copies per 10000 copies of GAP | Copy Numbers per 10000 Copies of GAPDH IL-1β (IL-1β gene expression [3]): 24423.1 copies per 10000 copies of GAP | Copy Numbers per 10000 Copies of GAPDH Col 1 [4]: 8905.8 copies per 10000 copies of GAP | Copy Numbers per 10000 Copies of GAPDH MCP-1 [5]: 823.5 copies per 10000 copies of GAP | Copy Numbers per 10000 Copies of GAPDH Fibronectin [6]: 26090.7 copies per 10000 copies of GAP | Copy Numbers per 10000 Copies of GAPDH IL-6 (IL-6 gene expression): 95.7 copies per 10000 copies of GAP | Copy Numbers per 10000 Copies of GAPDH Endothelin [7]: 6.4 copies per 10000 copies of GAP
